According to patent US7925520B2, “Methods of predicting dose of drug and program for predicting dose of drug” (priority 2007, dated 2011):
Where “and” joins values, the source holds several entries; their conditions need not be identical. Equal entries are not always repeated. Where two headings read alike, the source gives them in different places.

Tests used:
[1] = Measurement 1: migration M of drug ion to skin with membrane type iontophoresis device; format: in vitro ADME, rat; details: for LogM: log of migration M, 6.25 mM, 0.94 mA, 60 minutes; for LogM / M (migration of drug ion to skin): rat back skin; for M (migration of drug ion to skin): 6.25 mM drug solution, constant current 0.94 mA for 60 minutes, average of 3
Text: (§1) In some embodiments, a working side assembly 10 of the device 1 may include a working side electrode (negative electrode) 11; an electrolyte solution holding portion 12 for holding a physiological salt solution; a cation exchange membrane 13 on the front surface side of the electrolyte solution holding portion; a drug solution holding portion 14 for holding a drug solution on the front surface side of the cation exchange membrane 13; and an anion exchange membrane 15 on the front surface side of the drug solution holding portion.
(§2) In some embodiments, a non-working side assembly 20 of the device 1 may include a non-working side electrode (positive electrode) 21; an electrolyte solution holding portion 22 for holding a physiological salt solution; an anion exchange membrane 23 on the front surface side of the electrolyte solution holding portion 22; an electrolyte solution holding portion 24 for holding a physiological salt solution on the front surface side of the anion exchange membrane 23; and a cation exchange membrane 25 on the front surface side of the electrolyte solution holding portion 24. It should be noted that an ion exchange membrane CLE 04-2 manufactured by Tokuyama Co., Ltd. was used as each of the ion exchange membrane 13 and the ion exchange membrane 25, and an ion exchange membrane ALE 04-2 manufactured by Tokuyama Co., Ltd. was used as each of the ion exchange membrane 15 and the ion exchange membrane 23.
Energization was performed in a state where a corium layer 32 was brought into contact with the physiological salt solution of the electrolyte solution holding portion 26. After energization, the skin 30 was frozen and processed.
The above measurement was performed 3 times for each sample, and the average value of the measurements was determined as the migration M.

[2] = Measurement 2: migration C of drug ion under skin-absent condition (through anion exchange membrane into physiological salt solution); format: physicochemical; details: for C (migration of drug ion under skin-absent condition): 6.25 mM drug solution, constant current 0.94 mA for 60 minutes, average of 3; for LogC: log of migration C, 6.25 mM, 0.94 mA, 60 minutes
Text: as §1, §2
The drug solution composition of the drug solution holding portion 14, energization conditions, and the like were identical to those of Measurement 1.
The above measurement was performed 3 times for each sample, and the average value of the measurements was determined as the migration C.

[3] = value from Scifinder database, cited from earlier work; for PSA: in Å2 (unit assumed)
[4] = Prediction of Log(M*/C) from measured C and R by Equation 2; set-up: species or system rat; details: M* determined as a function of measured C and R values (Eq. 2)
[5] = Measurement 3: migration R of drug ion to liposome; format: physicochemical; details: 20 mM EPC liposome and 3.125 mM drug solution 1:1 by volume; 37° C., 18 hours; average of 3
Procedure: 20 mM of an EPC liposome (yolk phosphatidylcholine (lecithin)/particle diameter 290 to 490 nm) and 3.125 mM of a drug solution were mixed at a volume ratio of 1:1, and the mixture was incubated at 37° C. for 18 hours. After that, the resultant was centrifuged, and the amount of a drug ion in each of the supernatant and the precipitate was measured by HPLC, whereby the amount of the drug ion (unit: nmol/cm^3) that had migrated to the EPC liposome was measured.
The above measurement was performed 3 times for each sample, and the average value of the measurements was determined as the migration R.

| Log(M/C) [1] | C (migration of drug ion under skin-absent condition) [2] | LogC [2] | Predicted Log(M*/C) [4] | LogR (migration R of drug ion to liposome) [5] | Log(M/C) ([1]; from measured M and C) | LogM [1] | Compound | PSA [3] | LogD [3] | LogP [3] | M (migration of drug ion to skin) [1] [nmol/mL] |
| --- | --- | --- | --- | --- | --- | --- | --- | --- | --- | --- | --- |
| −0.8 | 4806 nmol/mL | 3.68 | −1.03 | −0.47 |  |  | 1-Naphtaleneacetic acid [Napthaleneacetic acid] | 37 and 37.3 |  |  |  |
|  |  | 2.86 | 0.1 |  | 0.3 | 3.16 | O=C(O)Cc1ccccc1Nc1c(Cl)cccc1Cl [Diclofenac] |  |  |  |  |
|  |  | 3.41 | −0.54 |  | −0.93 | 2.48 | CCc1cccc2c3c([nH]c12)C(CC)(CC(=O)O)OCC3 (centres unmarked) [Etodolac] |  |  |  |  |
|  | 3409 nmol/mL | 3.53 |  | 0.27 |  |  | O=C(O)Cc1ccc(-c2ccccc2)cc1 [Felbinac] |  | 0.83 | 3.26 |  |
|  | 7822 nmol/mL | 3.89 |  | −0.69 |  |  | O=C(O)Cc1c[nH]c2ccccc12 [Indoleacetic acid, 3-Indoleacetic acid] |  | −1.37 | 1.43 |  |
| −0.74 | 3744 nmol/mL and 3774 nmol/mL | 3.58 | −0.87 | −0.26 |  |  | O=C(O)CCCc1c[nH]c2ccccc12 [Indolebutylic acid, Indolebutyric acid] | 53 and 53.1 |  |  |  |
|  | 2189 nmol/mL | 3.34 | −0.49 | 0.23 | −0.87 | 2.47 | COc1ccc2c(c1)c(CC(=O)O)c(C)n2C(=O)c1ccc(Cl)cc1 [Indomethacin] | 64 | −0.13 | 3.11 | 296 |

| Compound | Log(M/C) [1] | C (migration of drug ion under skin-absent condition) [2] | LogC [2] | Predicted Log(M*/C) [4] | LogR (migration R of drug ion to liposome) [5] | Log(M/C) ([1]; from measured M and C) | LogM [1] | PSA [3] | LogD [3] | LogP [3] | M (migration of drug ion to skin) [1] [nmol/mL] |
| --- | --- | --- | --- | --- | --- | --- | --- | --- | --- | --- | --- |
| CC(C(=O)O)c1cccc(C(=O)c2ccccc2)c1 (centres unmarked) [Ketoprofen] |  | 2432 nmol/mL | 3.39 | −0.89 | −0.29 |  |  | 54 | 0.33 |  |  |
| O=C(O)c1ccccc1O [Salicylic acid] |  | 6800 nmol/mL | 3.83 | −1.04 | −0.49 | −0.96 | 2.87 | 58 | −1.08 | 2.06 | 749 |
